Results: patent publication US20050132448A1, “Assay for beta cell toxic macrolides” (priority 2001, published 2005)

Tests used:
C57B1/6J mice = assay: Size and number of pancreatic islets after vATPase inhibitors; format: in vivo
Protocol: The effect of vATPase inhibitors on the size and number of pancreatic islets was analysed in C57B1/6J using either bafilomycin A1 (BA1) or concanamycin A (CMA). The effect of Streptozotocin, an islet beta-cell specific toxin produced by Streptomyces achromogenes was also examined, to enable comparison with the effect of vATPase inhibitors.
Groups of 4 female C57B1/6J mice were injected with 5 doses on 5 consecutive days of 12 ng/g body weight BA1, CMA or the well characterised islet β-cell toxin streptozotocin. Pancreases were removed on day 84 and 3 formalin-fixed sections per mouse were immunostained for insulin. The area of insulin-positive islets was measured on digital images using MCID software.

Balb/c mice [1] = assay: Oral glucose tolerance test (OGTT); format: in vivo
Protocol: (§1) Male Balb/c mice were provided by the Monash University Central Animal House and Breeding Facility. The Monash University Department of Biochemistry Animal Ethics Committee approved all animal experimentation. Bafilomycin A1 (Sigma) was dissolved in 70% ethanol then diluted 1 in 10 with sterile phosphate buffered saline (PBS) to give a working stock of 4.8 μg/ml. Groups of between 3 and 9 mice as indicated were administered 12 μg per kilogram (body weight) bafilomycin A1 by intraperitoneal injection, which should achieve a final concentration in the blood of 275 nM bafilomycin A1 assuming a blood volume of 70 ml per kg for mice. […] Control mice received the ethanol/PBS carrier solution that lacked the inhibitor.
Groups of 6 control and 6 treated mice were fasted for 6-7 hours then anaesthetised by intraperitoneal injection of 35 mg/kg body weight of pentobarbitone (Nembutal) in order to minimise stress-induced variations in blood glucose. D-glucose (2 mg/g body weight) was delivered into the stomach by gavage as a 200 mg/ml solution. Blood glucose concentrations were determined for the fasted mice and at 15, 30, 60 and 120 minutes after glucose challenge as follows. Whole blood (approximately 60 μl) was collected from the tail vein and glucose concentrations were immediately determined by the glucose oxidase method using a YSI glucose analyser.

vATPase = biological target: T1, vATPase (Mus musculus, UniProt P63082); assay: V-ATPase activity assay on kidney homogenates of bafilomycin A1 treated mice; format: in vivo; conditions: for Bafilomycin A1 sensitive ATPase activity ± SD / total ATPase activity ± SD: kidney homogenate; for reduction of bafilomycin A1 sensitive ATPase activity: vs control
T1 construct: from tissue; host or cells: kidney of male Balb/c mice (crude homogenate, 700 x g supernatant)
Protocol: as §1
Seven control mice, 4 mice treated 1 day previously and 4 mice treated 7 days previously with bafilomycin A1 were anaesthetised with 35 mg per kg body weight pentobarbitone (Nembutal) and the kidneys removed and immediately frozen on dry ice and stored at −80° C. until processed. The kidneys were weighed then homogenised in liquid nitrogen using a mortar and pestle. 1 ml of 10 mM Tris-Cl pH 8.0 and 2 mM Mg2Cl containing protease inhibitors was then added and the tissue was further homogenised with 5 strokes of a dounce homogeniser. One ml of 0.5 M sucrose, 40 mM Tris-Cl pH 8, 2 mM Mg2Cl was then added to the homogenate and the suspension was clarified by centrifugation at 700×g for 10 minutes at 4° C. Supernatents containing soluble and membrane bound components were then assayed in duplicate for ATPase activity by incubating 100 μl of a 1:100 dilution of the tissue extract with 1 mM ATP in Tris buffered saline (TBS) for 30 minutes in the well of a microtitre plate in the presence or absence of 15 μl of a 1 μM solution of bafilomycin A1 in a final reaction volume of 200 μl. The inorganic phosphate released was measured using the one-step method of Chan et al., (1986), and absorbances were read in a microtitre plate reader at a wavelength of 660 nm. Results were corrected for background phosphate concentration and ATP autohydrolysis. The protein content of each kidney extract was determined using the Bradford reagent (Biorad).

Balb/c mice [2] = assay: Pancreatic immunoreactive insulin content by RIA on pancreas homogenates; format: in vivo; conditions: treated 14 days previously, 15 minutes after glucose challenge
Protocol: Groups of 9 mice were treated with bafilomycin A1 or carrier solution then fasted, anaesthetised with penotobarbitone and challenged with glucose as described for the OGTT. Blood samples for insulin assay were collected from the orbital plexus from fasted mice or from mice 15 minutes after glucose challenge using 4×75 μl haematocrit tubes for each bleed. Serum samples were diluted 1 in 5 or 1 in 20 then assayed in duplicate for insulin content using a Linco sensitive rat insulin radioimmunoassay kit. Pancreata from the mice that were bled 15 minutes after glucose challenge were dissected and frozen on dry ice. The frozen pancreata were homogenised in 2 ml of PBS containing 1 mg/ml BSA per gram of pancreas by 10 strokes in a dounce homogeniser. The slurry was sonicated using 3×10 second bursts and then centrifuged at 12,000×g for 60 minutes. The supernatants were stored at −20° C. Insulin content was determined by sensitive rat insulin RIA using a 1 in 1,000 dilution of the homogenates.
Pancreatic immunoreactive insulin content was determined directly by RIA on homogenates of pancreas. Mice treated 14 days previously were fasted and then challenged with glucose 15 minutes prior to removal of the pancreas. […]

P-ATPase = conditions: 275 nM; cited from earlier work
F-ATPase = conditions: 275 nM; cited from earlier work

T1 sequence (Q91V37 whole entry): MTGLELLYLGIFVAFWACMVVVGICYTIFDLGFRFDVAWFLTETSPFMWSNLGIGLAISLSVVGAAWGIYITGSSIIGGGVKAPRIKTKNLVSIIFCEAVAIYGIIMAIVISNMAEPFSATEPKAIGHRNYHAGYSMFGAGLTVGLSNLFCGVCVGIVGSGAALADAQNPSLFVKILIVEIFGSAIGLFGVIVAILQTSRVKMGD
T1 sequence (P63082 whole entry): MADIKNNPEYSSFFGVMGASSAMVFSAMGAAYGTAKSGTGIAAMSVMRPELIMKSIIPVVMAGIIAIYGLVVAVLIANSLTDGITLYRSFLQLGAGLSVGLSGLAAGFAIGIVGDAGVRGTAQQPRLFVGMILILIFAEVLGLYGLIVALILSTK

Question: With `CO/C1=C\C(C)=C\[C@@H](C)[C@@H](O)[C@@H](C)C/C(C)=C/C=C/[C@H](OC)[C@@H]([C@@H](C)[C@@H](O)[C@H](C)[C@@]2(O)C[C@@H](O)[C@H](C)[C@@H](C(C)C)O2)OC1=O` [bafilomycin A1] as the molecule, how does the “No. islets per mm^2 pancreas section” value (C57B1/6J mice; day 84, 5 daily doses of 12 ng/g body weight) read?
Answer: The value was 0.85 per mm^2 pancreas section.

Question: And the “effect on islet number and size” value (C57B1/6J mice; i.p. 12 ng/gram body weight)?
Answer: Its value is “increased the number of small islets”.

Question: And the Median size (C57B1/6J mice; insulin-positive islets, day 84, 5 daily doses of 12 ng/g body weight)?
Answer: The Median size was 3830 μm^2.

Question: And the “blood glucose after 2 hours (OGTT)” value (Balb/c mice [1]; 21 days after treatment)?
Answer: The value was 4.2 ± 0.2 mM.

Question: What about the “blood glucose after 2 hours (OGTT)” value (Balb/c mice [1]; seven days after administration) of the same molecule?
Answer: Its value is 4.1 ± 0.4 mM.

Question: What about the fasting glucose levels (Balb/c mice [1]; treated mice) of the same molecule?
Answer: Its fasting glucose levels is “no change”.

Question: And the “peak glucose level, 15 minutes after glucose challenge” value (Balb/c mice [1]; twenty one days after administration)?
Answer: Its value is 12.5 ± 2.4 mM.

Question: What about the “kidney % of animal weight ± SD” value (vATPase; 1 day after treatment) of the same molecule?
Answer: Its value is 0.90 ± 0.11%.

Question: And the “weight or protein contents of the kidneys, treated vs control” value (vATPase; 1 day and 7 days after treatment)?
Answer: Its value is “no significant differences”.

Question: And the “kidney % of animal weight ± SD” value (vATPase; 7 day after treatment)?
Answer: Its value is 0.90 ± 0.15%.

Question: And the “Bafilomycin A1 sensitive ATPase activity ± SD” value (vATPase; 1 day after 12 μg/kg i.p.)?
Answer: The value was 0.80 ± 0.30 Nmol/min/mg protein.

Question: And the “total ATPase activity ± SD” value (vATPase; 1 day after 12 μg/kg i.p.)?
Answer: The value was 4.4 ± 0.5 Nmol/min/mg protein.

Question: What about the “Bafilomycin A1 sensitive ATPase activity ± SD” value (vATPase; 7 day after 12 μg/kg i.p.) of the same molecule?
Answer: The value was 0.80 ± 0.30 Nmol/min/mg protein.

Question: And the “total ATPase activity ± SD” value (vATPase; 7 day after 12 μg/kg i.p.)?
Answer: Its value is 4.8 ± 0.8 Nmol/min/mg protein.

Question: What about the “reduction of bafilomycin A1 sensitive ATPase activity” value (vATPase; kidney, 1 day after treatment) of the same molecule?
Answer: Its value is 50%.

Question: What about the “reduction of bafilomycin A1 insensitive ATPase activity” value (vATPase; kidney, 1 day and 7 days after treatment) of the same molecule?
Answer: The value was “not in bafilomycin A1 insensitive ATPase activity”.

Question: What about the “reduction of bafilomycin A1 sensitive ATPase activity” value (vATPase; kidney, 7 days after treatment) of the same molecule?
Answer: Its value is 50%.

Question: What about the “more pancreatic immunoreactive insulin than controls” value (Balb/c mice [2]) of the same molecule?
Answer: Its value is 70%.

Question: And the “pancreatic immunoreactive insulin content (median)” value (Balb/c mice [2])?
Answer: The value was 565 μg IRI per gram of pancreas.

Question: And the “inhibition of P-ATPase activity” value (P-ATPase)?
Answer: Its value is “no detectable inhibition”.

Question: What about the “inhibition of F-ATPase activity” value (F-ATPase) of the same molecule?
Answer: The value was “no detectable inhibition”.
